Measurements from US7906110B2, “Rapid preparation of stem cell matrices for use in tissue and organ treatment and repair” (University of Pittsburgh—of the Commonwealth System of …, priority 2001, dated 2011).

System: spontaneous contractile activity of MDSC/SIS preparations
Test: Pharmacological evaluation on spontaneous contractile activity of MDSC/SIS
Type: cell-based
Settings: for effect on spontaneous contractile activity in MDSC/SIS specimens: added to bath: carbachol 10 and 20 μM, KCI 7%, 1 M, EGTA 200 μM in Ca++-free Krebs
Procedure: Twenty five preparations of MDSC/SIS and twenty five control preparations of SIS only were incubated at 37° C. for 1, 4, or 8 weeks. The specimens were then mounted in a thermally controlled bath of 5 ml at 37° C. in Krebs solution (mmol/L: NaCl, 113; KCI, 4.7; CaCl2,1.25; MgSO4,1.2; NaHCO3, 25; KH2PO4, 1.2 and glucose, 11.5) with a mixture of 95% 02 and 5% C02. The frequency and amplitude of isometric contractions were measured with strain gauge transducers coupled with a TBM4 strain gauge amplifier and recorded on a computer using a data acquisition program (Windaq, DATAQ Instruments Inc. Akron, Ohio). After 60 minutes of equilibration, electrical field stimuli (10 Hz, 150 volt, 0.5 ms, 60 sec) were applied in the bath. Pharmacological evaluations were performed with succinylcholine (S-Chol), (4, 10 and 20 μM); carbachol (10 and 20 μM); KCI, (7%, 1 M); Ca^++-free Krebs solution with EGTA (200 μM); or distilled water, were each added to the bath sequentially at 30 minute intervals. The frequency, amplitude, and pattern of contraction of the specimens were compared among the different groups.

O=C(O)CN(CCOCCOCCN(CC(=O)O)CC(=O)O)CC(=O)O [EGTA]
effect on spontaneous contractile activity in MDSC/SIS specimens: blocked

[Cl-].[K+] [KCI]
effect on spontaneous contractile activity in MDSC/SIS specimens: did not alter

C[N+](C)(C)CCOC(N)=O [carbachol]
effect on spontaneous contractile activity in MDSC/SIS specimens: did not alter

C[N+](C)(C)CCOC(=O)CCC(=O)OCC[N+](C)(C)C [succinylcholine]
effect on frequency, amplitude or pattern of spontaneous activity (4 μM, any of the preparations): did not alter
frequency and amplitude of spontaneous contractile activity decreased (4-week MDSC/SIS, 10 μM): 2 of 5
frequency and amplitude of spontaneous contractile activity decreased (4-week MDSC/SIS, 20 μM): 5 of 5
spontaneous contractile activity blocked (4-week MDSC/SIS, 20 μM): 2 of 5
frequency and amplitude of spontaneous contractile activity decreased (8-week MDSC/SIS, 10 μM): 8 of 8
effect on frequency and amplitude of spontaneous contractile activity (8-week MDSC/SIS, 20 μM): decreased
spontaneous contractile activity blocked (8-week MDSC/SIS, 20 μM): 5 of 8
reversibility of suppressant effects (after washout of the drug): reversible
